A value given as a limit tells only on which side of the number the result lay.

Series [1] in a line: Stability against racemization (chiral HPLC). It is filed as physicochemical. The protocol:
Test Example 7: Stability Against Racemization Each test sample (1 mg) was dissolved in CH3CN (1 mL), and 0.1 M N-methylmorpholine aqueous solution (adjusted to pH 7.4 with 1N HCl) (1 mL) was added to dilute the solution twofold, thereby preparing a solution with a final concentration of 0.5 mg/mL. The sample was divided into nine portions of 150 μL each, and each portion was placed in a sampler set to 37° C. The enantiomers in the sample were quantified at 0, 1, 3, 6, 24, 48, 72, and 167 hours under the following HPLC conditions, and the enantiomeric excess (ee) at each time point was calculated.
As test samples, Example Compound 211-1 was used as an example, while (S)-thalidomide represented by the following formula
• Equipment: ACQUITY UPLC H-Class Waters • Column: […] IE-3 (3 μm, 4.6×150 mm) Daicel Corporation • Flow rate: 0.5 mL/min • Column temperature: 25° C.
• Mobile phase: 100% MeOH • Injection volume: 0.7 μL • Detection wavelength: 217.0 nm
• Mobile phase: 100% MeOH • Injection volume: 1.2 μL • Detection wavelength: 221.0 nm
• Mobile phase: EtOH/CH3CN=90/10 • Injection volume: 1.5 μL • Detection wavelength: 221.0 nm

Series [2] concerns the target CRBN truncate (318-426) (Homo sapiens (Human), UniProt Q96SW2). The experiment in a line: Measurement of molecular interactions using surface plasmon resonance (SPR), Biacore T200. In kind it is binding. The following applies: 25° C., immobilized CRBN truncate, upper limit of measurement 200 μM. In a few lines:
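C-terminally Avi-tagged CRBN (318-426) captured on a streptavidin SA chip on a Biacore T200. Running buffer 10 mM HEPES pH 7.5, 150 mM NaCl, 1 mM TCEP, 0.005% Tween 20, 2% DMSO; 60 s contact, 120 s dissociation.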

Where [3] appears, read: 0 h, pH 7.4, 37° C., CH3CN/0.1 M N-methylmorpholine aqueous solution.

Chain of CRBN truncate (318-426) (Q96SW2 318-426): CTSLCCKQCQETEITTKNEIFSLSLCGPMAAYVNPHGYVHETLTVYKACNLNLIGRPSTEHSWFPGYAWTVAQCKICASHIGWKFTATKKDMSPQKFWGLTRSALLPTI

Take `Cn1c(=O)n([C@@H]2CCC(=O)NC2=O)c2cccc(I)c21` [Compound A′]: the “ee Normalized to 100 at 0 min” value in series [1] (0 h, pH 7.4, 37° C.) is listed as 100; in series [1] (24 h, pH 7.4, 37° C.), 80.94; in series [1] (48 h, pH 7.4, 37° C.), 65.4; in series [1] (72 h, pH 7.4, 37° C.), 52.76; in series [1] (167 h, pH 7.4, 37° C.), 22.41. For the same molecule, the ee in series [1] (setting [3]) came to 96.08; in series [1] (24 h, pH 7.4, 37° C.) it was 77.77; in series [1] (48 h, pH 7.4, 37° C.) it was 62.84; in series [1] (72 h, pH 7.4, 37° C.), 50.69; in series [1] (167 h, pH 7.4, 37° C.), 21.53; in series [1] (Initial), 95.39.

For the molecule `Cn1c(=O)n([C@@H]2CCCC(=O)NC2=O)c2cccc(I)c21` (stereo in doubt) [Example 211-1, 3-(4-Iodo-3-methyl-2-oxobenzimidazol-1-yl) azepane-2,7-dione], the “ee Normalized to 100 at 0 min” value in series [1] (0 h, pH 7.4, 37° C.) was 100; in series [1] (24 h, pH 7.4, 37° C.) it was 88.21; in series [1] (48 h, pH 7.4, 37° C.) it was 78.16; in series [1] (72 h, pH 7.4, 37° C.) it was 70.46; in series [1] (167 h, pH 7.4, 37° C.), 42.07. In addition, the ee came to 99.43 in series [1] (setting [3]); 87.71 in series [1] (24 h, pH 7.4, 37° C.); 77.71 in series [1] (48 h, pH 7.4, 37° C.); 70.06 in series [1] (72 h, pH 7.4, 37° C.); 41.83 in series [1] (167 h, pH 7.4, 37° C.); 99.44 in series [1] (Initial).

`O=C1CC[C@H](N2C(=O)c3ccccc3C2=O)C(=O)N1` [(S) Thalidomide, (S)-thalidomide]: the “ee Normalized to 100 at 0 min” value is on record as 100 in series [1] (0 h, pH 7.4, 37° C.); 79.59 in series [1] (24 h, pH 7.4, 37° C.); 63.24 in series [1] (48 h, pH 7.4, 37° C.); 50.23 in series [1] (72 h, pH 7.4, 37° C.); 20.16 in series [1] (167 h, pH 7.4, 37° C.). Moreover, the ee turned out to be 92.11 in series [1] (setting [3]); 73.31 in series [1] (24 h, pH 7.4, 37° C.); 58.25 in series [1] (48 h, pH 7.4, 37° C.); 46.27 in series [1] (72 h, pH 7.4, 37° C.); 18.57 in series [1] (167 h, pH 7.4, 37° C.); 92.16 in series [1] (Initial).

With `Cc1sc2c(c1C)C(c1ccc(Cl)cc1)=N[C@@H](CC(=O)NCCCCCCCc1cn(C3CCCC(=O)NC3=O)nn1)c1nnc(C)n1-2` (stereo partly drawn) [Example 310, 2-[(9S)-7-(4-chlorophenyl)-4,5,13-trimethyl-3-thia-1,8,11,12-tetraazatricyclo[8.3.0.02,6]trideca-2(6),4,7,10,12-pentaen-9-yl]-N-[7-[1-(2,7-dioxoazepan-3-yl)triazol-4-yl]heptyl]acetamide], in series [2], the Kd is at least 100 µM.

`CN1C(=O)[C@H](N2C=CCC(=O)NC2=O)C[C@H]1c1ccc(/C=C/C(=O)OC(C)(C)C)cc1` (relative stereo) [Example 290, tert-Butyl (E)-3-[4-[(2S*,4R*)-4-(2,4-dioxo-5H-1,3-diazepin-1-yl)-1-methyl-5-oxopyrrolidin-2-yl]phenyl]prop-2-enoate] had a Kd in series [2] of at least 100 µM.

Molecule `Cn1c(=O)n(C2CCCC(=O)NC2=O)c2cccc(C3=CCN(CC(=O)OC(C)(C)C)CC3)c21` (centres unmarked) [Example 222, tert-Butyl 2-[4-[1-(2,7-dioxoazepan-3-yl)-3-methyl-2-oxobenzimidazol-4-yl]-3,6-dihydro-2H-pyridin-1-yl]acetate] displayed a Kd in series [2] of 50 to 100 µM.

The molecule `CN1C(=O)C(C)(N2C=CCC(=O)NC2=O)c2ccc(/C=C/C(=O)OC(C)(C)C)cc21` (centres unmarked) [Example 288, tert-Butyl (E)-3-[3-(2,4-dioxo-5H-1,3-diazepin-1-yl)-1,3-dimethyl-2-oxoindolin-6-yl]prop-2-enoate] displayed a Kd in series [2] below 50 µM.

Consider `O=C1COCC(NC(=O)c2cccc(-c3ccccc3)c2)C(=O)N1` (centres unmarked) [Example 22, N-(3,5-dioxo-1,4-oxazepan-6-yl)-3-phenylbenzamide], for which the Kd in series [2] is at least 100 µM.

Broadly, the Kd is the equilibrium constant for the complex coming apart. A higher Kd goes with a looser complex.

(Values after patent US20250388593A1 (MITSUBISHI TANABE PHARMA CORPORATION, priority 2023, published 2025).)
